Measurements from patent US20250066338A1, “CERTAIN 3-AZABICYCLO[3.1.0]HEXANES AS GLP-1 RECEPTOR MODULATORS” (AstraZeneca AB, priority 2021, published 2025).

Assays:
[1] = target: human phosphodiesterase-3A (Homo sapiens (Human), UniProt Q14432); assay: PDE3 Assay; assay type: biochemical; conditions: human recombinant enzyme expressed in Sf9 cells; formation of 5'AMP from cAMP
Protocol: Evaluation of the effects of compounds on the activity of the human phosphodiesterase-3A is quantified by measuring the formation of 5′AMP from cAMP using a human recombinant enzyme expressed in a clonal isolate of Spodoptera frugiperda cells (Sf9) cells.
The test compound, reference compound or water (control) are added to a buffer containing 40 mM tris(hydroxymethyl)aminomethane (Tris)/HCl (pH 7.4) and 8 mM MgCl2, 450 nMcAMP and 0.25 μCi [^3H]cAMP.
Thereafter, the reaction is initiated by addition of the enzyme (about 1 U) and the mixture is incubated for 20 min at 22° C.
For basal control measurements, the enzyme is omitted from the reaction mixture. Following incubation SPA beads are added. After 30 min at 22° C. under shaking, the amount of [^3H]^+ 5′AMP is quantified with a scintillation counter (Topcount, Packard).
The results are expressed as a percent inhibition of the control enzyme activity. The standard inhibitory reference compound is milrinone (CAS number 78415-72-2), which is tested in each experiment at several concentrations to obtain an inhibition curve from which its IC50 value is calculated.

[2] = target: GLP-1R in EndoC-βH1 cells (Homo sapiens (Human), UniProt P43220); assay: EndoC cAMP Accumulation Assay; assay type: cell-based; conditions: EndoC-βH1 human pancreatic beta cell line; HTRF cAMP accumulation
Sequence of GLP-1R in EndoC-βH1 cells (P43220 24-463): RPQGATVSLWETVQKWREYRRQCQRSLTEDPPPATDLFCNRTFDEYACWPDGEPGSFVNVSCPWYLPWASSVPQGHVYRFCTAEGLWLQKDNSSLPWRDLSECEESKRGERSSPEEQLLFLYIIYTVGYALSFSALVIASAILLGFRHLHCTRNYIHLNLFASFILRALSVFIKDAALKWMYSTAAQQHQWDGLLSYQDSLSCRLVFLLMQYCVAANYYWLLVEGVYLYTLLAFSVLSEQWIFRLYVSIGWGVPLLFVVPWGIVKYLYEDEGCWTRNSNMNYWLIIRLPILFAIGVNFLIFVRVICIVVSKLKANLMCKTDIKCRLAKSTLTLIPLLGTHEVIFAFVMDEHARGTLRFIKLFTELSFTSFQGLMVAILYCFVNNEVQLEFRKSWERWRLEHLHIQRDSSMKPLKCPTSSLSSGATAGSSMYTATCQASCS
Text: EndoC cAMP Accumulation Assay
A HTRF cAMP assay (cAMP Gs dynamic kit; CisoBio Cat #62AM4PEJ) was used to identify agonists of GLP-1R in a pancreatic insulinoma cell line (EndoC-βH1). […] EndoC-βH1 cells have detectable GLP-1R messenger ribonucleic acid (mRNA) as detected by quantitative polymerase chain reaction (qPCR). […] The EndoC-βH1 cell line is a valid model of human beta cells and applicable for screenings to identify novel drug target candidates (Mol. Metab., 2018, 8, 144-157). CisBio HTRF cAMP kits are based on a competitive immunoassay using cryptate-labelled anti-cAMP antibody and d2-labeled cAMP. The detection kit is intended for the direct quantitative determination of cAMP. The specific signal (i.e. energy transfer) is inversely proportional to the concentration of cAMP in the standard or sample. Test compounds (10 mM in DMSO) were diluted into assay buffer (HBSS (Sigma #H8264) supplemented with 25 mM HEPES (Gibco #15630, pH 7.4), 0.1% BSA (Sigma #A3059) and 0.5 mM IBMX (Sigma #17018) included fresh on the day of the assay) into 96 well U-bottom plates (Greiner #650201). Diluted compounds were transferred to ECHO source polypropylene plates (Labcyte #P-05525) and dose response curves were dispensed acoustically using ECHO 550 into black shallow-well u-bottom 384-well HTRF Assay Plates (Corning 4514).
Cryovials of EndoC-H1 (supplied at 1×10e^7 cells/vial) were used directly for screening. The cryovials and were removed from N2 (1) and thawed rapidly in a 37° C. water bath. The cells were resuspended in assay buffer and centrifuged at 300 g for 5 min. Cells were resuspended in assay buffer at the appropriate concentration, typically at 12e5 cells per mL (3000 cells per well, dependent on cell batch) and 2.5 μL diluted cells were added to all wells of destination plate by Multidrop combi reagent dispenser (Thermofisher). The plates were incubated at rt for 30 min. The assay was stopped by adding 2.5 μL anti-cAMP cryptate solution to all wells and 2.5 μL cAMP-d2 solution (both diluted 1:20 in lysis buffer) to columns 1-22 by Combi drop. A volume of 2.5 μL cAMP-d2 solution was added to wells E23 to P24 and 2.5 μL lysis buffer added to wells A23 to D24 by multichannel pipette. The plates were incubated at rt for 1 h and read on an Envision plate reader using excitation wavelength of 320 nm and emission of […] and 660 nm.
Raw data from Envision is converted to % DeltaF according to the manufacturer's instructions. Dose response curves are analysed via 4-Parameter Logistical Analysis and assay plate Z′ values obtained. Samples are graphed as percentage (%) activation plots compared to GIP (1-42, Bachem H-5645) with assay window defined by negative control as basal cell cAMP levels and positive control are defined by maximum GIP (82.5 nM) signal. GLP1 (7-36 amide, Bachem H-6795) dose response curve was included on all plates.

human GLP-1R receptor = human GLP-1R receptor (Homo sapiens (Human), UniProt P43220, L260F); assay: CHOK1 GLP-1R cAMP Assay; assay type: cell-based; conditions: CHO-K1 cell line stably expressing human GLP-1R; HTRF cAMP; agonist activity
Sequence of human GLP-1R receptor (P43220 24-463 L260F): as the sequence (P43220 24-463) above, with L237F counted along it
Protocol: A cell line stably expressing the human GLP-1R receptor (NM 002062.5, including the naturally-occurring variant Leu260Phe) in a CHO-K1 (ATCC® CCL-61™) was used for assay.
GLP-1 receptor mediated agonist activity was determined in a cell based assay measuring cyclic adenosine monophosphate (cAMP) levels in cells using Homogeneous Time-Resolved Fluorescence (HTRF) cAMP detection kit (CisBio catalog #62AM4PEC, cAMP Gs Dynamic range kit). The cAMP detection method is based on a competitive immunoassay, in which cAMP produced by the cells and cAMP labeled with the dye d2 compete for binding to a Europium-Cryptate-labeled anti-cAMP antibody. The specific HTRF signal is inversely proportional to the concentration of cAMP.
Compounds were added to individual well in 384 well-assay plates (Greiner #784076) using an Echo (LabCyte) dispenser from 10 mM stocks. Varying concentration of compounds were added to wells, and DMSO was used to normalize each well to a volume of 100 nL. A dose response curve of GLP1(7-36)NH2 (Bachem H-6795) was included in each run. 5 μL of cAMP concentration response standards are applied in specified wells in the assay plates. Cryo-preserved cells are thawed and resuspended in assay buffer pre-heated to 37° C. (20 mM HEPES pH 7.4, lx Hank's Balanced Salt Solution (HBSS, Life Technologies #14065) supplemented with 0.1% (w/v) bovine serum albumin (Sigma, A-7030). Cells were centrifuged at 250*g for 5 min at rt, and resuspended in room tempered assay buffer to a final density of 0.16*10^6 cell/mL, to deliver 800 cells/well. 5 μL of assay buffer with 1 mM 3-isobutyl-1-methylxanthin (IBMX; Sigma cat I-7018) was dispensed per well in assay plates using a multidrop combi (Thermo Scientific) subsequently 5 μL of cell suspension was distributed to relevant wells in the assay using a multidrop dispenser. Assay plates were incubated 20 min at rt.
Detection reagents, Europium-Cryptate-labeled anti-cAMP antibody and cAMP labeled with the dye d2, are diluted in lysis buffer, provided by the manufacturer. 5 μL of each detection reagent is supplemented to each assay well using a multidrop dispenser. Assay plates are incubated in the dark for at least one h. The HTRF signal is measured using the HTRF module (excitation: 337 nm, emission A: 665 nm and emission B: 620 nm) in Pherastar FSX (BMG Labtech).
Raw data were converted to pM cAMP using the cAMP standard curve included in each run. Converted data were further analyzed in Genedata Screener (Genedata) and EC50 determinations were made from agonist dose-response curves analyzed with a curve fitting program using a 4-parameter logistic dose response equation (Equation y=A+((B−A)/1+((C/x)^D))) where A is no stimulation, B is full stimulation, C is the EC50 and D is the Hill slope). The percent effect was determined relative to a saturating concentration of a full GLP-1R agonist (GLP1(7-36)NH2 has 100% effect in this assay setup).

Sequence of human phosphodiesterase-3A (Q14432 whole entry): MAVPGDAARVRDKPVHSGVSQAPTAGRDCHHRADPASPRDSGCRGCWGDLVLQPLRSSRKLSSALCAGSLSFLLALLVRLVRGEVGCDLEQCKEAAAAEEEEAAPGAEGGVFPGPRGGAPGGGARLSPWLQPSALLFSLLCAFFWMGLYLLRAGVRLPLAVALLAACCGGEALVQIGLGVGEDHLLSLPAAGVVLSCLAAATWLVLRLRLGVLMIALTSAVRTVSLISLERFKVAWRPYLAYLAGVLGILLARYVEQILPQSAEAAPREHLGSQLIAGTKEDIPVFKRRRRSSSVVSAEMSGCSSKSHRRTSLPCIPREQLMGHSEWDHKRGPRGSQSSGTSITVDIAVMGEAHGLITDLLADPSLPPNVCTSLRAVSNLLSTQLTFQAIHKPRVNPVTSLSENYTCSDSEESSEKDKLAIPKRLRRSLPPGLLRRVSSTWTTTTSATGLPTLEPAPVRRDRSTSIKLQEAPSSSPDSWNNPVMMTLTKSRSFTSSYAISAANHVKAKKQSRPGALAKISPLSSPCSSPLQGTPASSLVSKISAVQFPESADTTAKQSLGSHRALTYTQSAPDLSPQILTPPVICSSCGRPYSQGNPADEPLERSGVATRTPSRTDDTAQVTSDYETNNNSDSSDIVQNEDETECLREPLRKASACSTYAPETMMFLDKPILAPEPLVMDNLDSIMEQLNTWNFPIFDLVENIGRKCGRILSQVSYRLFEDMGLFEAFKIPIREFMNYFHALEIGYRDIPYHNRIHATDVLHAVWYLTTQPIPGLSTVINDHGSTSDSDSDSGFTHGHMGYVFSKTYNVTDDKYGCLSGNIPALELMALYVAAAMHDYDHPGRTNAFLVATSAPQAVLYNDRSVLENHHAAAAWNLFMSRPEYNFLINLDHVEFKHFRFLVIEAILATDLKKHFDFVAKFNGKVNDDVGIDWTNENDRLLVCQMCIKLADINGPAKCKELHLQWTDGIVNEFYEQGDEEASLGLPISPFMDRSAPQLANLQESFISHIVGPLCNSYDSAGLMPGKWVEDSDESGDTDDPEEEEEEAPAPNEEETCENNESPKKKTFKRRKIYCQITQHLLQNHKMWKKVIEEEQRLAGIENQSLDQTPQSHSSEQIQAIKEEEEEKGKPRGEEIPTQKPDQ

COc1cc(C(=O)O)cc2c1nc(CN1C[C@@H]3[C@H](C1)[C@H]3c1nc(OCc3ccc(Cl)cc3F)ccc1C)n2C[C@@H]1CCO1 [Example 19, 2-(((1R,5S,6S)-6-(6-((4-Chloro-2-fluorobenzyl)oxy)-3-methylpyridin-2-yl)-3-azabicyclo[3.1.0]hexan-3-yl)methyl)-4-methoxy-1-(((S)-oxetan-2-yl)methyl)-1H-benzo[d]imidazole-6-carboxylic acid]
IC50 [1]: > 100000 nM
EC50 [2]: 9.6 nM
EC50 (human GLP-1R receptor): 19 nM
